In US7812039B2, “Drugs for chronic pains” (Nicox S.A., priority 2001, dated 2010):

How the values were obtained:
Type in all cases: in vivo
[1] = tested on: Wistar adult rats; assay: Neuropathic pain model, ligature of the right sciatic nerve (Bennett), withdrawal latencies; conditions: 14 days after ligature, percentage of control response
Experimental: Wistar adult rats weighing about 200 grams were used, in the experimental model described by Bennett G J, Xie Y K, Pain 1988, 33(1): 87-107. The pain response (withdrawal latencies) is determined 14 days after the ligature of the right sciatic nerve. The results obtained are reported in Table 2 and have been expressed as a percentage ratio of the difference between the response from the intact paw and from the injured paw, to the response of the control animals, that have been injected with the carrier and undergone the nerve ligature. The groups were of 10 rats each.

[2] = tested on: female Sprague-Dawley rats; assay: Mechanical allodynia (von Frey hairs, vocalization threshold) in spinally-injured rats, repeated administration; conditions: for vocalization threshold (g) to mechanical stimulation with von Frey hairs: 1 hour after administration
Experimental: In this experiment the effect of repeated administration of NO-gabapentin was assessed and compared with that of the precursor drug gabapentin in a rat model of neuropathic pain. In 4 groups of female Sprague-Dawley rats weighting 200 g photochemically-induced ischemic spinal cord injury was produced according to methods describe by Xu et al. Pain, 1992, 48, 279-290.
Spinally-injured rats developed a chronic pain syndrome, including marked mechanical and cold allodynia. The rats were injured 3-6 months before the beginning of the experiment. Each of the groups of rats were i.p. treated daily for 10 day, respectively, with 60 mg/kg (167.2 μmole/Kg) of NO-gabapentin and with 30 mg/Kg (175 μmole/Kg) of gabapentin. Controls (two groups) received only the vehicle. Each day the treatment of the animals was made at the same time. During the experiment vocalized thresholds to graded mechanical touch/pressure were tested with von Frey hairs.
During testing, rats were gently restrained in a standing position and the von Frey hair was pushed onto the skin until filament becomes bent. The frequency of stimulation was about 1/s and repeated 5-10 times. The intensity of stimulation (g) which induced consistent vocalization (>75% response rate) is considered as pain threshold. Behavioral testings were carried out before the daily for the control group and 1 hour after administration for the treated groups.

[3] = tested on: female Sprague-Dawley rats; assay: Cold allodynia (ethyl chloride spray) in spinally-injured rats, acute administration
Excerpt: (§1) In 6 groups of female Sprague-Dawley rats weighting 200 g, photochemically-induced ischemic spinal cord injury was produced according to methods described by Xu et al. Pain, 1992, 48, 279-290. Spinally-injured rats developed a chronic pain syndrome, including marked mechanical and cold allodynia. The rats were injured 3-6 months before the beginning of the experiment.
(§2) Each group of rats was i.p. treated, respectively, with one of the following compounds using one of the above indicated doses: • NO-gabapentin at doses of 20 mg/Kg (55 μmole/Kg), or 60 mg/Kg (167.21 μmole/Kg), or 100 mg/kg (278.7 μmole/Kg), dissolved in saline, single dose, i. p.); • gabapentin at doses of 30 mg/Kg ([…]) or 100 mg/kg ([…]), dissolved in saline, single dose i. p.); • the control group received the vehicle; The response to cold was tested by spray-applying ethyl chloride on the shaved allodynic skin area at time 0 (i.p. injection) and then at 30′, 120′ and 240′. The response was evaluated according to the following score: • 0=no response; • 1=localized response (skin twitch and contraction), no vocalization; • 2=transient vocalization, moderate struggle; • 3=sustained vocalization and aggression.

[4] = tested on: Swiss male mice; assay: "Paw-licking" test (formalin injected in the paw); conditions: for Number "paw licking" %: 1 h before formalin, counted 15 min, percentage of control group
Experimental: Four groups of Swiss male mice (20-25 g, Charles River) each formed by 10 animals, received by intraperitoneal injection Gabapentin (90 mg/kg) or the compound of formula (XVI) (Example 3), called NO-Gabapentin at the doses of 50 mg/kg, in a saline solution. The control group received the same volume of saline solution. One hour after the administration of the compound solutions, formalin (10 μl) was injected in the paw. In the 15 minutes subsequent to formalin administration, for each animal, the number of times wherein it licked its paw was counted. The analysis was carried out “in blind”.

[5] = tested on: Wistar adult male rats; assay: Acute toxicity in the diabetic animal (streptozocin)
Experimental: In 50 Wistar adult male rats weighing 165-190 g, diabetes was induced by injection i.v. of a single dose of streptozocin (65 mg/kg in 1 ml/kg buffer citrate at pH 4.5).
After one week the animals were distributed in three groups of 10 rats each and treated per os for three days with daily doses of 100 mg/kg of gabapentin and NO-gabapentin. The controls were treated only with streptozocin.
Death rate was monitored for 7 days from the last treatment.

[6] = tested on: female Sprague-Dawley rats; assay: Motor performance (combined testing system) in spinally-injured rats
Excerpt: as §1, §2
The effect of the compounds on motor activity was also evaluated using a combined testing system as described in Hao, J. X. and Xu, X. J., Pain, 1996, 66, 279-286.

CC(=O)Oc1ccccc1C(=O)Oc1cccc(CO[N+](=O)[O-])c1 [NO-ASA, 2-acetylsalicylic acid (3-nitrooxymethyl)phenyl ester]
response % ([1]; NO-ASA 100 mg/Kg p.o.): 82%

Cl.NCC1(CC(=O)Oc2cccc(CO[N+](=O)[O-])c2)CCCCC1 [NO-gabapentin, 1-(aminomethyl)cyclohexan acetic acid 3-(nitrooxymethyl)phenyl hydrochloride ester]
vocalization threshold (g) to mechanical stimulation with von Frey hairs ([2]; 167.2 μmole/kg i.p. daily, Day 1): 100 g
vocalization threshold (g) to mechanical stimulation with von Frey hairs ([2]; 167.2 μmole/kg i.p. daily, Day 2): 200 g
vocalization threshold (g) to mechanical stimulation with von Frey hairs ([2]; 167.2 μmole/kg i.p. daily, Day 4): 400 g
vocalization threshold (g) to mechanical stimulation with von Frey hairs ([2]; 167.2 μmole/kg i.p. daily, Day 6): 90 g
maintenance of significant effect on mechanical allodynia, in words ([2]; 60 mg/kg (167.2 μmole/Kg) i.p. daily): a significant effect was maintained up to day 6
effect on mechanical allodynia, in words ([2]; 60 mg/kg (167.2 μmole/Kg) i.p. daily for 10 day): alleviated mechanical allodynia following the first administration
response to cold stimulation, score (0-3) ([3]; 55.7 μmole/kg i.p. single dose, time 0 min): 2
response to cold stimulation, score (0-3) ([3]; 55.7 μmole/kg i.p. single dose, time 30 min): 2
response to cold stimulation, score (0-3) ([3]; 55.7 μmole/kg i.p. single dose, time 120 min): 2
response to cold stimulation, score (0-3) ([3]; 167.2 μmole/kg i.p. single dose, time 0 min): 2
response to cold stimulation, score (0-3) ([3]; 167.2 μmole/kg i.p. single dose, time 30 min): 1
response to cold stimulation, score (0-3) ([3]; 167.2 μmole/kg i.p. single dose, time 120 min): 1
response to cold stimulation, score (0-3) ([3]; 278.7 μmole/kg i.p. single dose, time 0 min): 2
response to cold stimulation, score (0-3) ([3]; 278.7 μmole/kg i.p. single dose, time 30 min): 1
response to cold stimulation, score (0-3) ([3]; 278.7 μmole/kg i.p. single dose, time 120 min): 1
response to cold stimulation, score (0-3) ([3]; 278.7 μmole/kg i.p. single dose, time 240 min): 1
duration of significant effect on cold allodynia ([3]; 60 mg/kg (167.21 μmole/Kg) i.p.): 120 min
duration of significant effect on cold allodynia ([3]; 100 mg/kg (278.7 μmole/Kg) i.p.): 240 min
effect on cold allodynia, in words ([3]; acute administration, 20, 60 or 100 mg/kg i.p.): alleviated in a dose-dependent way cold allodynia
Number "paw licking" % ([4]; 50 mg/kg i.p.): 70%
inhibition of "paw-licking" compared with starting drug, in words ([4]; NO-gabapentin 50 mg/kg vs Gabapentin 90 mg/kg i.p.): more active than the starting drug
death rate with respect to animals treated with gabapentin ([5]; diabetic animals, 100 mg/kg per os for three days): less than half

NCC1(CC(=O)O)CCCCC1 [Gabapentin]
vocalization threshold (g) to mechanical stimulation with von Frey hairs ([2]; 175 μmole/kg i.p. daily, Day 1): 5 g
vocalization threshold (g) to mechanical stimulation with von Frey hairs ([2]; 175 μmole/kg i.p. daily, Day 2): 6 g
vocalization threshold (g) to mechanical stimulation with von Frey hairs ([2]; 175 μmole/kg i.p. daily, Day 4): 70 g
vocalization threshold (g) to mechanical stimulation with von Frey hairs ([2]; 175 μmole/kg i.p. daily, Day 6): 90 g
effect on mechanical allodynia, in words ([2]; 30 mg/Kg (175 μmole/Kg) i.p. daily for 10 day): did not produce a significant effect up to the second day
effect on mechanical allodynia compared with NO-gabapentin, in words ([2]; gabapentin 30 mg/Kg vs NO-gabapentin 60 mg/kg i.p. daily): the effect was lower than that of NO-gabapentin
response to cold stimulation, score (0-3) ([3]; 175 μmole/kg i.p. single dose, time 0 min): 2
response to cold stimulation, score (0-3) ([3]; 175 μmole/kg i.p. single dose, time 30 min): 2
response to cold stimulation, score (0-3) ([3]; 175 μmole/kg i.p. single dose, time 120 min): 2
response to cold stimulation, score (0-3) ([3]; 175 μmole/kg i.p. single dose, time 240 min): 2
antiallodynic effect (cold), in words ([3]; 30 mg/Kg (175 μmole/Kg) i.p.): did not produce a significant antiallodynic effect
Number "paw licking" % ([4]; 90 mg/kg i.p.): 80%
lethality % ([5]; 100 mg/kg per os daily for three days, diabetic rats, monitored 7 days from last treatment): 50%
motor performance (score) ([6]; 175 μmole/kg i.p., time 0 min): 20
motor performance (score) ([6]; 175 μmole/kg i.p., time 30 min): 20
motor performance (score) ([6]; 175 μmole/kg i.p., time 120 min): 20
motor performance (score) ([6]; 175 μmole/kg i.p., time 240 min): 20
motor performance (score) ([6]; 584 μmole/kg i.p., time 0 min): 15
motor performance (score) ([6]; 584 μmole/kg i.p., time 30 min): 30
motor performance (score) ([6]; 584 μmole/kg i.p., time 120 min): 30
motor performance (score) ([6]; 584 μmole/kg i.p., time 240 min): 25
effect on motor activity, in words ([6]; 100 mg/kg (584 μmole/Kg) i.p.): induced motor impairment and sedation

CN(C)CCCN1c2ccccc2CCc2ccc(Cl)cc21 [Clomipramine, clomipramine]
response % ([1]; clomipramine 10 mg/kg i.p.): 72%
